From US10800754B2, “Heterocyclic amide compound” (TAKEDA PHARMACEUTICAL COMPANY LIMITED, priority 2016, dated 2020)

Key:
[1] = system: human ovarian cancer cell A2780; test: proliferation inhibitory activity against A2780 cells (CellTiter-Glo); assay type: cell-based; settings: A2780, 72 h, 1 μM test compound, 3 days of culture, read-out: proliferation inhibitory rate (%) of A2780 cells
Description: The proliferation inhibitory activity of the compound of the present invention against human ovarian cancer cell A2780 was evaluated by the following method.
Human ovarian cancer cells A2780 were seeded in a 384 well culture plate at 1000 cells in 30 μL of medium per well by using RPMI-1640 medium (Wako Pure Chemical Industries, Ltd.) containing 10% fetal bovine serum and penicillin/streptomycin. The next day, 10 μL of RPMI-1640 medium containing the test compound was added to the cells. After 3 days of culture, 20 μL of CellTiter-Glo Luminescent Cell Viability Assay solution (Promega, Fitchburg, Wis., US) was added. The luminescence signal was measured using EnVision (PerkinElmer, Waltham, Mass., US) and the inhibitory rate (%) of the test compound was calculated with a well free of seeding of cell as 100% inhibition.

human PRS protein = molecular target: T1, human PRS protein (Homo sapiens, UniProt P07814); test: PRS inhibitory activity (ATP/[32P]pyrophosphate exchange enzyme reaction); assay type: biochemical; settings: 300 nM test compound; recombinant human PRS (EPRS 998-1512); read-out: inhibitory rate (%) of PRS
T1 construct: to construct His-Avi-hEPRS (998-1512) expression plasmid; His tag (N); Avi tag (N); TEV cleavage site (ENLYFQ/GS, encoded by forward primer hEPRS-TEV-NheF) (N); made in house; host or cells: E. coli BL21(DE3)
T1 sequence (P07814 998-1512): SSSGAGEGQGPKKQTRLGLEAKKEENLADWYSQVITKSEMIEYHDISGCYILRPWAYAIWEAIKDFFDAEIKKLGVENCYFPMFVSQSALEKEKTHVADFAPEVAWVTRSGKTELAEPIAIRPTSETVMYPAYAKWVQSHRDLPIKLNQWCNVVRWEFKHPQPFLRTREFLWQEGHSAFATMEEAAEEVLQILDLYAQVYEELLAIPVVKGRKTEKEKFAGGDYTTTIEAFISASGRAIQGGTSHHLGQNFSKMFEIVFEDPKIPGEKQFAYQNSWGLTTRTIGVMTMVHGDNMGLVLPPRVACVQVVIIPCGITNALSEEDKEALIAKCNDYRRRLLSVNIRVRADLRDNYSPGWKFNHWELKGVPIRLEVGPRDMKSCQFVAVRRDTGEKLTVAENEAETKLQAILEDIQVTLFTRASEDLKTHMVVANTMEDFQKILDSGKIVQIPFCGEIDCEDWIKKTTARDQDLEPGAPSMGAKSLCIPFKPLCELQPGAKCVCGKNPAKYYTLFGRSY
Procedure, shortened: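 His-Avi-tagged human EPRS catalytic domain (998-1512), E. coli-expressed, was preincubated 60 min with compound (enzyme added as 40 nM solution) in Tris pH 7.5, KCl, DTT, Tween 20 and MgCl2. The substrate solution contained 300 μM ATP, 160 μM L-proline, and 400 μM pyrophosphate with [32P]pyrophosphate; reaction ran 30 min at room temperature. Charcoal-captured label was counted, with enzyme-free wells taken as 100% inhibition.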

| inhibition at 0.3 µM (human PRS protein) [%] | SMILES | inhibition at 1 µM [1] [%] |
| --- | --- | --- |
| 100 | Cc1cc(-c2cccc(CC(=O)Nc3cc(N4CC[C@@](C#N)(C5CC5)C4=O)ccn3)c2)sn1 [Example 48, N-(4-((3S)-3-cyano-3-cyclopropyl-2-oxopyrrolidin-1-yl)pyridin-2-yl)-2-(3-(3-methyl-1,2-thiazol-5-yl)phenyl)acetamide] | 61 |
| 99 | Cn1ccc(-c2cccc(CC(=O)Nc3cc(N4CC[C@@](C#N)(C5CC5)C4=O)ccn3)c2)cc1=O [Example 51, N-(4-((3S)-3-cyano-3-cyclopropyl-2-oxopyrrolidin-1-yl)pyridin-2-yl)-2-(3-(1-methyl-2-oxo-1,2-dihydropyridin-4-yl)phenyl)acetamide] | 52 |
| 99 | Cc1cc(N2CC[C@@](C#N)(C3CC3)C2=O)cc(NC(=O)Cc2cc(F)cc(-c3cnn(C)c3)c2)n1 [Example 52, N-(4-((3S)-3-cyano-3-cyclopropyl-2-oxopyrrolidin-1-yl)-6-methylpyridin-2-yl)-2-(3-fluoro-5-(1-methyl-1H-pyrazol-4-yl)phenyl)acetamide] | 97 |
| 99 | CC(C)(C)OC(=O)n1cc(-c2cccc(CC(=O)Nc3cc(N4CC[C@@](C#N)(C5CC5)C4=O)ccn3)c2)cn1 [Example 55, tert-butyl 4-(3-(2-((4-((3S)-3-cyano-3-cyclopropyl-2-oxopyrrolidin-1-yl)pyridin-2-yl)amino)-2-oxoethyl)phenyl)-1H-pyrazole-1-carboxylate] | 67 |
| 98 | N#C[C@@]1(C2CC2)CCN(c2ccnc(NC(=O)Cc3cccc(-c4cn[nH]c4)c3)c2)C1=O [Example 56, N-(4-((3S)-3-cyano-3-cyclopropyl-2-oxopyrrolidin-1-yl)pyridin-2-yl)-2-(3-(1H-pyrazol-4-yl)phenyl)acetamide] | 64 |
| 99 | N#C[C@@]1(C2CC2)CCN(c2ccnc(NC(=O)Cc3cccc(-c4cnn(CC(F)(F)F)c4)c3)c2)C1=O [Example 58, N-(4-((3S)-3-cyano-3-cyclopropyl-2-oxopyrrolidin-1-yl)pyridin-2-yl)-2-(3-(1-(2,2,2-trifluoroethyl)-1H-pyrazol-4-yl)phenyl)acetamide] | 75 |
| 99 | Cc1cc(N2CC[C@@](C#N)(C3CC3)C2=O)cc(NC(=O)Cc2cc(F)cc(-c3ccc(=O)n(C)c3)c2)n1 [Example 60, N-(4-((3S)-3-cyano-3-cyclopropyl-2-oxopyrrolidin-1-yl)-6-methylpyridin-2-yl)-2-(3-fluoro-5-(1-methyl-6-oxo-1,6-dihydropyridin-3-yl)phenyl)acetamide] | 97 |
| 99 | N#C[C@@]1(C2CC2)CCN(c2ccnc(NC(=O)Cc3cccc(-c4cnn(CC5CC5)c4)c3)c2)C1=O [Example 64, N-(4-((3S)-3-cyano-3-cyclopropyl-2-oxopyrrolidin-1-yl)pyridin-2-yl)-2-(3-(1-(cyclopropylmethyl)-1H-pyrazol-4-yl)phenyl)acetamide] | 79 |
| 95 | Cn1cc(-c2cccc(CC(=O)Nc3cc(N4CC[C@@](C#N)(C5CC5)C4=O)cc(C(F)F)n3)c2)cn1 [Example 65, N-(4-((3S)-3-cyano-3-cyclopropyl-2-oxopyrrolidin-1-yl)-6-(difluoromethyl)pyridin-2-yl)-2-(3-(1-methyl-1H-pyrazol-4-yl)phenyl)acetamide] | 75 |
| 100 | N#C[C@@]1(C2CC2)CCN(c2ccnc(NC(=O)Cc3cccc(-c4cnn(CCO)c4)c3)c2)C1=O [Example 67, N-(4-((3S)-3-cyano-3-cyclopropyl-2-oxopyrrolidin-1-yl)pyridin-2-yl)-2-(3-(1-(2-hydroxyethyl)-1H-pyrazol-4-yl)phenyl)acetamide] | 77 |
| 99 | N#CCCCn1cc(-c2cccc(CC(=O)Nc3cc(N4CC[C@@](C#N)(C5CC5)C4=O)ccn3)c2)cn1 [Example 71, N-(4-((3S)-3-cyano-3-cyclopropyl-2-oxopyrrolidin-1-yl)pyridin-2-yl)-2-(3-(1-(3-cyanopropyl)-1H-pyrazol-4-yl)phenyl)acetamide] | 69 |

Continued, compound first:

| SMILES | inhibition at 0.3 µM (human PRS protein) [%] | inhibition at 1 µM [1] [%] |
| --- | --- | --- |
| N#C[C@@]1(C2CC2)CCN(c2ccnc(NC(=O)Cc3cccc(-c4cnsc4)c3)c2)C1=O [Example 50, N-(4-((3S)-3-cyano-3-cyclopropyl-2-oxopyrrolidin-1-yl)pyridin-2-yl)-2-(3-(1,2-thiazol-4-yl)phenyl)acetamide] | 99 | 78 |
| Cn1cc(-c2ccc(F)c(CC(=O)Nc3cc(N4CC[C@@](C#N)(C5CC5)C4=O)ccn3)c2)cn1 [Example 53, N-(4-((3S)-3-cyano-3-cyclopropyl-2-oxopyrrolidin-1-yl)pyridin-2-yl)-2-(2-fluoro-5-(1-methyl-1H-pyrazol-4-yl)phenyl)acetamide] | 100 | 82 |
| Cc1cc(N2CC[C@@](C#N)(C3CC3)C2=O)cc(NC(=O)Cc2cc(F)cc(-c3cn(C)nn3)c2)n1 [Example 57, N-(4-((3S)-3-cyano-3-cyclopropyl-2-oxopyrrolidin-1-yl)-6-methylpyridin-2-yl)-2-(3-fluoro-5-(1-methyl-1H-1,2,3-triazol-4-yl)phenyl)acetamide] | 99 | 94 |
| Cc1cc(N2CC[C@@](C#N)(C3CC3)C2=O)cc(NC(=O)Cc2cc(-c3cnn(C)c3)cc(C(F)(F)F)c2)n1 [Example 59, N-(4-((3S)-3-cyano-3-cyclopropyl-2-oxopyrrolidin-1-yl)-6-methylpyridin-2-yl)-2-(3-(1-methyl-1H-pyrazol-4-yl)-5-(trifluoromethyl)-phenyl)acetamide] | 93 | 51 |
| Cn1cc(-c2cccc(CC(=O)Nc3cc(N4CC[C@@](C#N)(C5CC5)C4=O)cc(F)n3)c2)cn1 [Example 63, N-(4-((3S)-3-cyano-3-cyclopropyl-2-oxopyrrolidin-1-yl)-6-fluoropyridin-2-yl)-2-(3-(1-methyl-1H-pyrazol-4-yl)phenyl)acetamide] | 99 | 88 |
| N#C[C@@]1(C2CC2)CCN(c2ccnc(NC(=O)Cc3cccc(-c4cnn(C5CCCC5)c4)c3)c2)C1=O [Example 66, N-(4-((3S)-3-cyano-3-cyclopropyl-2-oxopyrrolidin-1-yl)pyridin-2-yl)-2-(3-(1-cyclopentyl-1H-pyrazol-4-yl)phenyl)acetamide] | 99 | 80 |
| CC(C)Cn1cc(-c2cccc(CC(=O)Nc3cc(N4CC[C@@](C#N)(C5CC5)C4=O)ccn3)c2)cn1 [Example 68, N-(4-((3S)-3-cyano-3-cyclopropyl-2-oxopyrrolidin-1-yl)pyridin-2-yl)-2-(3-(1-isobutyl-1H-pyrazol-4-yl)phenyl)acetamide] | 98 | 51 |
| COCCn1cc(-c2cccc(CC(=O)Nc3cc(N4CC[C@@](C#N)(C5CC5)C4=O)ccn3)c2)cn1 [Example 70, N-(4-((3S)-3-cyano-3-cyclopropyl-2-oxopyrrolidin-1-yl)pyridin-2-yl)-2-(3-(1-(2-methoxyethyl)-1H-pyrazol-4-yl)phenyl)acetamide] | 99 | 58 |
